Reference: patent publication US20070207993A1, “Molybdenum carbonyl complexes for treating rheumatoid arthritis and other inflammatory diseases” (Alfama - Investigacao e Desenvolvimetno De Productos …, priority 2005, published 2007)

Test: CO release in vivo (CO-hemoglobin in blood by oximeter)
Details: Balb/c mice, intraperitoneal, 100, 25 and 6.25 mg/kg, propylene glycol-water; 0, 30, 120 (330) minutes
Experimental: Nine week old Balb/c mice with a body weight of about 20 g were injected by the intraperitoneal route with Compound I.1 dissolved in a propylene glycol-water mixture. Three doses (100, 25 and 6.25 mg/kg) were used. At various times after the administration of the Compound I.1 blood was collected and CO-hemoglobin levels were determined using an oximeter.
Compound I.1 was administered intraperitonally to mice at a concentration of 100 mg/kg using propylene glycol/water ca.˜2:1 as vehicle. The amount of COHb (carboxyhemoglobin) was monitored with an oximeter in blood samples withdrawn at 0, 30, 120 and 330 minutes after administration. The results are shown in FIG. 9 and show a peaked level of CO after 30 minutes followed by a slow decline.
Compound I.1 was encapsulated in methylated β-cyclodextrin, 2,3,6-tri-O-methyl-β-cyclodextrin, known in the art as TRIMEB, by a standard technique. The encapsulated Compound I.1@TRIMEB (“@” means “encapsulated in”) was administered intraperitonally to mice at a concentration of 30 mg/kg using phosphate buffered saline (PBS) as vehicle. The amount of COHb (carboxyhemoglobin) was monitored with an oximeter in blood samples withdrawn after 30, 60, 90 and 120 minutes after administration.

O=[C][Mo]([Br])([C]=O)([C]=O)([C]=O)[C]=O [Compound I.1]
CO-hemoglobin level time course: increase in CO levels during the first time interval, followed by a slow decline
